# Test results reported in patent US10513511B2, “Aqueous suspension formulation comprising 4-(4-(4-(((3R,5R)-5-((1H-1,2,4-triazol-1-yl)methyl)-5-(2,4-difluoro-phenyl)tetrahydrofuran-3-yl)methoxy)-3-methylphenyl) or a pharmaceutically acceptable salt thereof” (PULMOCIDE LIMITED, priority 2015, dated 2019).
# Tests used:
# [1] = system: BEAS2B cells; test: Cell viability: resazurin assay; type: cell-based; conditions: at concentrations indicated in Table 4
# Protocol: BEAS2B cells were seeded in 384-well plates (100 μL; 3000/well/; BD Falcon, Catalogue No 353962) in RPMI-LHC8 (RPMI-1640 and LHC8 media combined in equal proportions) one day before experimentation. For cell-free control wells, RPMI-LHC8 (100 μL) was added. Test compounds (0.5 μL of a DMSO solution) were added to give a final DMSO concentration of 0.5% using an Integra VIAFLO 96 (Integra, Zizers, Switzerland). BEAS2B cells were incubated with each test compound for 1 day (37° C./5% CO2 in RPMI-LHC8). After addition of resazurin stock solution (5 μL, 0.04%) the plates were incubated for a further 4 hr (37° C./5% CO2). The fluorescence of each well at 545 nm (excitation) and 590 nm (emission) was determined using a multi-scanner (Clariostar: BMG Labtech). The percentage loss of cell viability was calculated for each well relative to vehicle (0.5% DMSO) treatment. Where appropriate, a CC50 value was calculated from the concentration-response curve generated from the concentration-response curve for each test compound.
# [2] = system: Cladosporium herbarum NCPF2564; test: Fungus panel screening, CLSI broth microdilution; type: cell-based
# Protocol: Fungus panel screening was conducted by Eurofins Panlabs Inc. The MIC and MIC50 values of the test articles were determined following the guidelines of the CLSI: broth microdilution methods for yeast (CLSI M27-A2), (CLSI, 2002) and for filamentous fungi (CLSI M38-A), (CLSI, 2008).
# [3] = system: Aspergillus fumigatus (ATCC 13073); test: In vivo anti-fungal activity, therapeutic treatment of infected immunocompromised neutropenic mice; parameters: species or system A/J mice; conditions: for CFU in lung, % Inhibition of response / DNA in Lung / DNA in Lung, % Inhibition of response / GM in Serum / GM in serum, % Inhibition of response / CFU in lung: therapeutic; for CFU in lung: mean ± SEM, n = 6
# Protocol: (§1) Aspergillus fumigatus (ATCC 13073 [strain: NIH 5233], American Type Culture Collection, Manassas, Va., USA) was grown on Malt agar (Nissui Pharmaceutical, Tokyo, Japan) plates for 6-7 days at RT (24±1° C.). Spores were aseptically dislodged from the agar plates and suspended in sterile distilled water with 0.05% Tween 80 and 0.1% agar. On the day of infection, spore counts were assessed by haemocytometer and the inoculum was adjusted to obtain a concentration of 1.67×10^8 spores mL^−1 of physiological saline. […] On day 0, animals were infected with the spore suspension (30 μL intra-nasally).
# (§2) Test substances were administered intra-nasally (35 μL of a suspension (0.0032-10.0 mg/mL of drug substance in physiological saline) once daily, on days 1, 2 and 3 only (thereby representing a therapeutic treatment regimen). For extended prophylactic treatment, test compounds (35 μL of a suspension of 0.0032 or 0.016 mg/mL in physiological saline) were administered intra-nasally once daily for seven days. One group was dosed 30 min before infection on day 0 but not subsequently, while a second group was further dosed on days 1, 2 and 3 after infection. The effects of these treatment paradigms were compared with those obtained when treatment was restricted in other groups to either one day or 30 min before inoculation and then on days 1, 2 and 3 post infection in both cases. In a final group, dosing was limited still further with animals dosed twice, one day and 30 min before infection only.
# (§3) Animal body weights were monitored daily and at 6 hr after the last dose of drug was administered on day 3, the animals were anesthetised, the tracheas cannulated and BALF blood and lung tissue were collected. The levels of IL-6 and TNFα in serum were determined using Quantikine® mouse IL-6 or TNF-α ELISA kit (R&D systems, Inc., Minneapolis, Minn., USA) respectively. Aspergillus GM in serum was determination using Platelia GM-EIA kits (Bio-Rad Laboratories, Redmond, Wash., USA). Cut-off index (COI) was calculated by the formula: Cut-off index=OD in sample/OD in cut-off control provided in kit. For tissue fungal load assays, 100 mg of lung tissue was removed aseptically and homogenized in 0.2 mL of 0.1% agar in sterile distilled water. Serially diluted lung homogenates were plated on Malt agar plates (50 μL/plate), and incubated at 24±1° C. for 72 to 96 h. The colonies of A. fumigatus on each plate were counted and the fungal titre presented herein as CFUs per gram of lung tissue.
# For determination of Aspergillus fumigatus DNA content, DNA was extracted from either infected lungs or Aspergillus fumigatus with the Isoplant (Nippon Gene) according to the manufacture's instruction. The tissues cut to <3 mm in any length were mixed with solution I (extraction buffer: 300 μL). Solution II (lysis buffer; benzyl chloride: 150 μL) was then added to the mixtures followed by mixing with a vortex mixer for 5 seconds. After incubation at 50° C. for 15 min, solution III (sodium acetate, pH5.2: 150 μL) was added the mixtures agitated vigorously for 1-3 seconds and then incubated on ice for 15 min. After the incubation, the mixtures were centrifuged at 12,000 g for 15 min at 4° C. DNA in the upper aq phases of the supernatants was precipitated with 100% ethanol (×2.5 vol), washed with 70% ethanol and dissolved in 5-10 μL of TE buffer.
# DNA amplification was performed with Premix Ex Taq™ (Takara Bio) in the 96-well optical reaction plate. Aspergillus fumigatus 18S rRNA gene fragments were amplified with the primer pair; 5′-GGCCCTTAA ATAGCCCGGT-3′ (SEQ ID No. 1) and 5′-[…]-3′ (SEQ ID No. 2), and hybridization probe; 5′-FAM-AGCCAGCGGCCCGCAAATG-TAMRA-3′ (SEQ ID No. 3). Real time PCR was performed in a (25 μL contained 50 ng of mouse DNA with 200 nM of probe) under the following conditions: initial incubation for 2 min at 50° C., initial denaturation for 10 min at 95° C., followed by 55 cycles of 15 seconds at 95° C. and 1 min at 65° C. […]
# [4] = system: IL-6; test: Serum IL-6 in Aspergillus fumigatus infected, immunocompromised, neutropenic mice; type: in vivo, A/J mice; conditions: for IL-6 in serum, % Inhibition / Conc of Biomarkers, IL-6 in serum: therapeutic; for Conc of Biomarkers, IL-6 in serum: mean ± SEM, N = 6
# Protocol: as §1, §2, §3
# [5] = system: TNFα; test: Serum TNFα in Aspergillus fumigatus infected, immunocompromised, neutropenic mice; type: in vivo, A/J mice; conditions: for TNFα in serum, % Inhibition / Conc of Biomarkers, TNFα in serum: therapeutic; for Conc of Biomarkers, TNFα in serum: mean ± SEM, N = 6
# Protocol: as §1, §2, §3
# [6] = Therapeutic Regimen, intranasal
# [7] = serum, title: Therapeutic Treatment
smiles,measurement,setting,value
"Cc1cc(N2CCN(c3ccc(C(=O)N[C@H]4CCCC[C@@H]4O)cc3)CC2)ccc1OC[C@@H]1CO[C@@](Cn2cncn2)(c2ccc(F)cc2F)C1 [Compound (Ia), 4-(4-(4-(((3R,5R)-5-((1H-1,2,4-triazol-1-yl)methyl)-5-(2,4-difluorophenyl)tetrahydrofuran-3-yl)methoxy)-3-methylphenyl)piperazin-1-yl)-N-((1S,2S)-2-hydroxycyclohexyl) benzamide]",effect on the viability of BEAS2B bronchial epithelial cells,[1],no or little effect
same,MIC50,[2]; 50% inhibition by visual inspection (CLSI),0.016 µg/mL
same,MIC,"[2]; 100% inhibition by visual inspection (CLSI), read-out: MIC100",0.016 µg/mL
same,"CFU in lung, % Inhibition of response",[3]; Drug Conc 3.2 μg/mL intranasal,19%
same,DNA in Lung,[3]; Drug Conc 3.2 μg/mL intranasal,41.7 ± 29.0 pg/50 ng mouse DNA
same,"DNA in Lung, % Inhibition of response",[3]; Drug Conc 3.2 μg/mL intranasal,41%
same,GM in Serum,[3]; Drug Conc 3.2 μg/mL intranasal,2.85 ± 2.76 COI
same,"GM in serum, % Inhibition of response",[3]; Drug Conc 3.2 μg/mL intranasal,16%
same,CFU in lung,[3]; Drug Conc 3.2 μg/mL intranasal,25.8 ± 20.8 /mg of lung
same,"CFU in lung, % Inhibition of response",[3]; Drug Conc 16 μg/mL intranasal,24%
same,DNA in Lung,[3]; Drug Conc 16 μg/mL intranasal,56.1 ± 53.4 pg/50 ng mouse DNA
same,"DNA in Lung, % Inhibition of response",[3]; Drug Conc 16 μg/mL intranasal,21%
same,GM in Serum,[3]; Drug Conc 16 μg/mL intranasal,3.01 ± 2.14 COI
same,"GM in serum, % Inhibition of response",[3]; Drug Conc 16 μg/mL intranasal,11%
same,CFU in lung,[3]; Drug Conc 16 μg/mL intranasal,24.2 ± 15.8 /mg of lung
same,"CFU in lung, % Inhibition of response",[3]; Drug Conc 80 μg/mL intranasal,71%
same,DNA in Lung,[3]; Drug Conc 80 μg/mL intranasal,4.10 ± 4.60 pg/50 ng mouse DNA
same,"DNA in Lung, % Inhibition of response",[3]; Drug Conc 80 μg/mL intranasal,94%
same,GM in Serum,[3]; Drug Conc 80 μg/mL intranasal,0.53 ± 0.38 COI
same,"GM in serum, % Inhibition of response",[3]; Drug Conc 80 μg/mL intranasal,84%
same,CFU in lung,[3]; Drug Conc 80 μg/mL intranasal,9.30 ± 5.20 /mg of lung
same,"ID50 Values, A. fumigatus DNA in Lung",[3]; [6],50 µg/mL
same,"ID50 Values, GM in serum",[3]; [6],47 µg/mL
same,"ID50 Values, Lung Fungal Load",[3]; [6],51 µg/mL
same,"IL-6 in serum, % Inhibition",[4]; Drug Conc 3.2 μg/mL,17%
same,"Conc of Biomarkers, IL-6 in serum",[4]; Drug Conc 3.2 μg/mL,247 ± 185 pg/mL
same,"IL-6 in serum, % Inhibition",[4]; Drug Conc 16 μg/mL,12%
same,"Conc of Biomarkers, IL-6 in serum",[4]; Drug Conc 16 μg/mL,262 ± 185 pg/mL
same,"IL-6 in serum, % Inhibition",[4]; Drug Conc 80 μg/mL,78%
same,"Conc of Biomarkers, IL-6 in serum",[4]; Drug Conc 80 μg/mL,66.5 ± 32.9 pg/mL
same,"ID50 Values for biomarkers indicated, IL-6",[4]; [7],50 µg/mL
same,"TNFα in serum, % Inhibition",[5]; Drug Conc 3.2 μg/mL,20%
same,"Conc of Biomarkers, TNFα in serum",[5]; Drug Conc 3.2 μg/mL,28.1 ± 13.8 pg/mL
same,"TNFα in serum, % Inhibition",[5]; Drug Conc 16 μg/mL,38%
same,"Conc of Biomarkers, TNFα in serum",[5]; Drug Conc 16 μg/mL,21.8 ± 14.6 pg/mL
same,"TNFα in serum, % Inhibition",[5]; Drug Conc 80 μg/mL,87%
same,"Conc of Biomarkers, TNFα in serum",[5]; Drug Conc 80 μg/mL,4.7 ± 1.0 pg/mL
same,"ID50 Values for biomarkers indicated, TNFα",[5]; [7],27 µg/mL
"CC[C@@H]([C@H](C)O)n1ncn(-c2ccc(N3CCN(c4ccc(OC[C@@H]5CO[C@@](Cn6cncn6)(c6ccc(F)cc6F)C5)cc4)CC3)cc2)c1=O [Posaconazole, reference compound]","ID50 Values, GM in serum",[3]; [6],590 µg/mL
same,"ID50 Values, Lung Fungal Load",[3]; [6],390 µg/mL
